The record followed here is patent publication US20250213701A1, “MEDICAMENT FOR TREATING HUMAN TUMOR BASED ON ERF3A-TARGETING PROTEOLYSIS MECHANISM” (SUZHOU DEGEN BIO-MEDICAL CO., LTD., priority 2022, published 2025).

A value given as a limit tells only on which side of the number the result lay.

What all share (type): cell-based, human
One assay relates to VCaP cells. Nature of the assay: Anti-proliferative toxicity against prostate cancer cell line Vcap (CCK8). The conditions noted are these: Homo sapiens, 72 h, 3 days, CCK8. On the procedure: (§1) Example 82: Detection of Anti-Proliferative Toxicity Against Prostate Cancer Cell Lines Vcap, 22Rv1, and PC-3
(§2) Vcap cells (purchased from the Cell Bank of the Chinese Academy of Sciences, Cat. No. SCSP-5034) were subcultured in a culture medium (DMEM medium+1% penicillin-streptomycin dual-antibiotic solution+10% fetal bovine serum) in an incubator at 5% carbon dioxide and 37° C. 22Rv1 cells (purchased from the Cell Bank of the Chinese Academy of Sciences, Cat. No. TCHu100) were subcultured in a culture medium (RPMI-1640 medium+1% penicillin-streptomycin dual-antibiotic solution+10% fetal bovine serum) in an incubator at 5% carbon dioxide and 37° C.
VCap cells were seeded at 20000 cells/well (90 μL) on a 96-well plate and cultured for 72 h. The original medium was removed, and a new medium of 90 μL was added.
(§3) 10 mM compound stock solutions were prepared in DMSO.
For VCap cells, the compound stock solution was diluted with DMSO to give DMSO solutions 1-10 at concentrations of 0 μM, 80 μM, 16 μM, 3.2 μM, 1.5 μM, 0.5 μM, 0.15 μM, 0.05 μM, 0.025 μM, and 0.0005 μM.
For Vcap cells, 2 μL of each of the above solutions 1-10 was added to 98 μL of Vcap medium to give mixed solutions 20-29 of the compound and the medium.
For Vcap cells, 10 μL of each of the above solutions 20-29 was added to the above cell seed solution to give a total volume of 100 μL (90 μL+10 μL), where the concentrations of the compound in wells were 0 μM, 0.16 μM, 0.032 μM, 0.006 μM, 0.003 μM, 0.001 μM, 0.0003 μM, 0.0001 μM, 0.00005 μM, and 0.00001 μM. All concentrations were in triplicate.
(§4) After the above-treated cells were cultured for 3 days, 10 μL of the CCK8 solution (DOJINDO, Cat. No. PF725) was added to each well. The plate was incubated in an incubator at 37° C. for 1-4 h and then detected on a microplate reader for the reading at 450 nm.

The test system of another assay is 22Rv1 cells. Nature of the assay: Anti-proliferative toxicity against prostate cancer cell line 22Rv1 (CCK8). As to conditions: Homo sapiens, 72 h, 3 days, CCK8. The procedure: as §1, §2
22Rv1 cells were seeded at 5000 cells/well (90 μL) on a 96-well plate and cultured for 48 h.
as §3
(§5) For 22Rv1 cells and PC-3 cells, the compound stock solution was diluted with DMSO to give DMSO solutions 11-19 at concentrations of 0 μM, 500 μM, 100 μM, 20 μM, 4 μM, 0.8 μM, 0.16 μM, 0.032 μM, 0.0064 μM.
For 22Rv1 cells, 2 μL of each of the above solutions 11-19 was added to 98 μL of 22Rv1 medium to give mixed solutions 30-38 of the compound and the medium.
(§6) For 22Rv1 and PC-3 cells, 10 μL of each of the above solutions 30-38 or 39-47 was added to the above cell seed solution to give a total volume of 100 μL (90 μL+10 μL), where the concentrations of the compound in wells were 0 μM, 1.0 μM, 0.2 μM, 0.04 μM, 0.008 μM, 0.0016 μM, 0.00032 μM, 0.00006 μM, and 0.00001 μM. All concentrations were in triplicate.
as §4

A further assay concerns PC-3 cells. Nature of the assay: Anti-proliferative toxicity against prostate cancer cell line PC-3 (CCK8). The conditions noted are these: Homo sapiens, 72 h, 3 days. The procedure: as §1
PC-3 cells (purchased from the Cell Bank of the Chinese Academy of Sciences, Cat. No. SCSP-532) were subcultured in a culture medium (F12K medium+1% penicillin-streptomycin dual-antibiotic solution+10% fetal bovine serum) in an incubator at 5% carbon dioxide and 37° C.
PC-3 cells were seeded at 4000 cells/well (90 μL) on a 96-well plate and cultured for 24 h.
as §3, §5
For PC-3 cells, 2 μL of each of the above solutions 11-19 was added to 98 μL of PC-3 medium to give mixed solutions 39-47 of the compound and the medium.
as §6, §4

The IC50 is the concentration that gives 50% inhibition. A high value points to weaker potency. As for `C[C@]12C=CC(=O)N[C@@H]1CC[C@@H]1[C@@H]2CC[C@]2(C)[C@@H](C(=O)Nc3ccc(OCCNc4cccc5c4C(=O)N(C4CCC(=O)NC4=O)C5=O)cc3)CC[C@@H]12` (stereo partly drawn) [C15, N-(4-((2-((4-(2-(3-(2,6-dioxopiperidine))-isoindole-1,3-dione))amino)ethyl)oxy)phenyl)-3-oxo-4-aza-5α-androst-1-ene-17β-carboxamide], the IC50 is 0.01 to 1 µM with VCaP cells, more than 1 µM in the assay on 22Rv1 cells and more than 1 µM with PC-3 cells.
Take `C[C@]12C=CC(=O)N[C@@H]1CC[C@@H]1[C@@H]2CC[C@]2(C)[C@@H](C(=O)Nc3ccc(OCCNc4ccc5c(c4)C(=O)N(C4CCC(=O)NC4=O)C5=O)cc3)CC[C@@H]12` (stereo partly drawn) [C16, N-(4-((2-((5-(2-(3-(2,6-dioxopiperidine))-isoindole-1,3-dione))amino)ethyl)oxy)phenyl)-3-oxo-4-aza-5α-androst-1-ene-17β-carboxamide]: the concentration for half-maximal inhibition (IC50) in the assay with VCaP cells, in the assay with 22Rv1 cells and in the assay on PC-3 cells was more than 1 µM each time.
Take `C[C@]12C=CC(=O)N[C@@H]1CC[C@@H]1[C@@H]2CC[C@]2(C)[C@@H](C(=O)Nc3ccc(OCCCNc4cccc5c4C(=O)N(C4CCC(=O)NC4=O)C5=O)cc3)CC[C@@H]12` (stereo partly drawn) [C17, N-(4-((3-((4-(2-(3-(2,6-dioxopiperidine))-isoindole-1,3-dione))amino)propyl)oxy)phenyl)-3-oxo-4-aza-5α-androst-1-ene-17β-carboxamide]: the IC50 in the assay with VCaP cells, with 22Rv1 cells and in the assay on PC-3 cells was more than 1 µM each time.
On to `C[C@]12C=CC(=O)N[C@@H]1CC[C@@H]1[C@@H]2CC[C@]2(C)[C@@H](C(=O)Nc3ccc(OCCCNc4ccc5c(c4)C(=O)N(C4CCC(=O)NC4=O)C5=O)cc3)CC[C@@H]12` (stereo partly drawn) [C18, N-(4-((3-((5-(2-(3-(2,6-dioxopiperidine))-isoindole-1,3-dione))amino)propyl)oxy)phenyl)-3-oxo-4-aza-5α-androst-1-ene-17β-carboxamide], for which the 50% inhibitory concentration (IC50) with VCaP cells, in the assay on 22Rv1 cells and in the assay with PC-3 cells was more than 1 µM each time.
For `C[C@]12C=CC(=O)N[C@@H]1CC[C@@H]1[C@@H]2CC[C@]2(C)[C@@H](C(=O)Nc3ccc(OCCCCCNc4cccc5c4C(=O)N(C4CCC(=O)NC4=O)C5=O)cc3)CC[C@@H]12` (stereo partly drawn) [C19, N-(4-((5-((4-(2-(3-(2,6-dioxopiperidine))-isoindole-1,3-dione))amino)pentyl)oxy)phenyl)-3-oxo-4-aza-5α-androst-1-ene-17β-carboxamide], the concentration for half-maximal inhibition (IC50) in the assay on VCaP cells, in the assay with 22Rv1 cells and in the assay on PC-3 cells was more than 1 µM throughout.
For `C[C@]12C=CC(=O)N[C@@H]1CC[C@@H]1[C@@H]2CC[C@]2(C)[C@@H](C(=O)Nc3ccc(OCCCCCNc4ccc5c(c4)C(=O)N(C4CCC(=O)NC4=O)C5=O)cc3)CC[C@@H]12` (stereo partly drawn) [C20, N-(4-((5-((5-(2-(3-(2,6-dioxopiperidine))-isoindole-1,3-dione))amino)pentyl)oxy)phenyl)-3-oxo-4-aza-5α-androst-1-ene-17β-carboxamide], the IC50 in the assay with VCaP cells, with 22Rv1 cells and in the assay with PC-3 cells was more than 1 µM in each case.
As for `C[C@]12C=CC(=O)N[C@@H]1CC[C@@H]1[C@@H]2CC[C@]2(C)[C@@H](C(=O)Nc3ccc(OCCCCCCNc4cccc5c4C(=O)N(C4CCC(=O)NC4=O)C5=O)cc3)CC[C@@H]12` (stereo partly drawn) [C21, N-(4-((6-((4-(2-(3-(2,6-dioxopiperidine))-isoindole-1,3-dione))amino)hexyl)oxy)phenyl)-3-oxo-4-aza-5α-androst-1-ene-17β-carboxamide], the half-maximal inhibitory concentration (IC50) in the assay with VCaP cells, in the assay with 22Rv1 cells and in the assay with PC-3 cells was more than 1 µM throughout.
Regarding `C[C@]12C=CC(=O)N[C@@H]1CC[C@@H]1[C@@H]2CC[C@]2(C)[C@@H](C(=O)Nc3ccc(OCCCCCCNc4ccc5c(c4)C(=O)N(C4CCC(=O)NC4=O)C5=O)cc3)CC[C@@H]12` (stereo partly drawn) [C22, N-(4-((6-((5-(2-(3-(2,6-dioxopiperidine))-isoindole-1,3-dione))amino)hexyl)oxy)phenyl)-3-oxo-4-aza-5α-androst-1-ene-17β-carboxamide], the 50% inhibitory concentration (IC50) in the assay on VCaP cells, in the assay with 22Rv1 cells and with PC-3 cells was more than 1 µM throughout.
Take `C[C@]12C=CC(=O)N[C@@H]1CC[C@@H]1[C@@H]2CC[C@]2(C)[C@@H](C(=O)Nc3ccc(OCCCCCCCNc4cccc5c4C(=O)N(C4CCC(=O)NC4=O)C5=O)cc3)CC[C@@H]12` (stereo partly drawn) [C23, N-(4-((7-((4-(2-(3-(2,6-dioxopiperidine))-isoindole-1,3-dione))amino)heptyl)oxy)phenyl)-3-oxo-4-aza-5α-androst-1-ene-17β-carboxamide]: the 50% inhibitory concentration (IC50) with VCaP cells, in the assay with 22Rv1 cells and in the assay with PC-3 cells was more than 1 µM in each case.
With `C[C@]12C=CC(=O)N[C@@H]1CC[C@@H]1[C@@H]2CC[C@]2(C)[C@@H](C(=O)Nc3ccc(OCCCCCCCNc4ccc5c(c4)C(=O)N(C4CCC(=O)NC4=O)C5=O)cc3)CC[C@@H]12` (stereo partly drawn) [C24, N-(4-((7-((5-(2-(3-(2,6-dioxopiperidine))-isoindole-1,3-dione))amino)heptyl)oxy)phenyl)-3-oxo-4-aza-5α-androst-1-ene-17β-carboxamide], the half-maximal inhibitory concentration (IC50) in the assay on VCaP cells, with 22Rv1 cells and in the assay on PC-3 cells was more than 1 µM in each case.
Regarding `C[C@]12C=CC(=O)N[C@@H]1CC[C@@H]1[C@@H]2CC[C@]2(C)[C@@H](C(=O)Nc3ccc(OCCCCCCCCNc4cccc5c4C(=O)N(C4CCC(=O)NC4=O)C5=O)cc3)CC[C@@H]12` (stereo partly drawn) [C25, N-(4-((8-((4-(2-(3-(2,6-dioxopiperidine))-isoindole-1,3-dione))amino)octyl)oxy)phenyl)-3-oxo-4-aza-5α-androst-1-ene-17β-carboxamide], the IC50 in the assay on VCaP cells, with 22Rv1 cells and in the assay on PC-3 cells was more than 1 µM throughout.
`C[C@]12C=CC(=O)N[C@@H]1CC[C@@H]1[C@@H]2CC[C@]2(C)[C@@H](C(=O)Nc3ccc(OCCCCCCCCNc4ccc5c(c4)C(=O)N(C4CCC(=O)NC4=O)C5=O)cc3)CC[C@@H]12` (stereo partly drawn) [C26, N-(4-((8-((5-(2-(3-(2,6-dioxopiperidine))-isoindole-1,3-dione))amino)octyl)oxy)phenyl)-3-oxo-4-aza-5α-androst-1-ene-17β-carboxamide]: the IC50 was 0.0001 to 0.01 µM with VCaP cells, 0.01 to 1 µM in the assay on 22Rv1 cells and more than 1 µM in the assay with PC-3 cells.
On the same counts, the results for `C[C@]12C=CC(=O)N[C@@H]1CC[C@@H]1[C@@H]2CC[C@]2(C)[C@@H](C(=O)Nc3cccc(OCCNc4cccc5c4C(=O)N(C4CCC(=O)NC4=O)C5=O)c3)CC[C@@H]12` (stereo partly drawn) [C27, N-(3-((2-((4-(2-(3-(2,6-dioxopiperidine))-isoindole-1,3-dione))amino)ethyl)oxy)phenyl)-3-oxo-4-aza-5α-androst-1-ene-17β-carboxamide] are 0.01 to 1 µM, more than 1 µM and more than 1 µM.
Take `C[C@]12C=CC(=O)N[C@@H]1CC[C@@H]1[C@@H]2CC[C@]2(C)[C@@H](C(=O)Nc3cccc(OCCNc4ccc5c(c4)C(=O)N(C4CCC(=O)NC4=O)C5=O)c3)CC[C@@H]12` (stereo partly drawn) [C28, N-(3-((2-((5-(2-(3-(2,6-dioxopiperidine))-isoindole-1,3-dione))amino)ethyl)oxy)phenyl)-3-oxo-4-aza-5α-androst-1-ene-17β-carboxamide]: the IC50 with VCaP cells, in the assay on 22Rv1 cells and in the assay on PC-3 cells was more than 1 µM each time.
